Assay results published in patent US12473291B2 (priority 2019, dated 2025).
Like-named read-outs stand apart in the source and are kept apart here.

Tests used:
KM mice = experiment: animal or person; format: in vivo; conditions: for duration and recovery time compared with remimazolam / effective dose compared with remimazolam: mice, tail vein, in words
SD rats = experiment: animal or person; format: in vivo; conditions: for duration and recovery time compared with remimazolam / effective dose compared with remimazolam: rats, tail vein, in words
[1] = KM mice, single tail vein injection at 2×ED50, time from disappearance to recovery of righting reflex
[2] = KM mice, single tail vein injection at 2×ED50, time from recovery of righting reflex to free crawling
[3] = Mus musculus, KM mice (male, 18-22 g), injection via the tail vein, disappearance of righting reflex, read-out: ED50
[4] = Rattus norvegicus, SD rats (male, 220-300 g), injection via the tail vein, disappearance of righting reflex, read-out: ED50
[5] = SD rats, single tail vein injection at 2×ED50, time from disappearance to recovery of righting reflex
[6] = SD rats, single tail vein injection at 2×ED50, time from recovery of righting reflex to free crawling

SMILES	2ED50 duration (KM mice; [1]) [min]	2ED50 recovery time (KM mice; [2]) [min]	ED50 (KM mice; [3]) [mg/kg]	ED50 (SD rats; [4]) [mg/kg]	2ED50 duration (SD rats; [5]) [min]	2ED50 recovery time (SD rats; [6]) [min]	Quality of recovery (SD rats; SD rats, tail vein injection)	Quality of recovery (KM mice; KM mice, tail vein injection)	also measured
CCOC(=O)OC(C)OC(=O)CC[C@@H]1N=C(c2ccccn2)c2cc(Br)ccc2-n2c(C)cnc21 (stereo partly drawn) [Example 54]	8.52	1.56	25	6.4	3.22	2.52	+++ (“+++” means 3-5 min)	–	duration and recovery time compared with remimazolam (KM mice): significantly shorter; effective dose compared with remimazolam (KM mice): significantly lower; duration and recovery time compared with remimazolam (SD rats): significantly shorter; effective dose compared with remimazolam (SD rats): significantly lower
COC(=O)COC(=O)CC[C@@H]1N=C(c2ccccn2)c2cc(F)c(OC)cc2-n2c(C)cnc21 [Example 27]	1.46	1.20	15.3	6.3	1.16	1.05	+ (“+” means <1 min)	–	duration and recovery time compared with remimazolam (KM mice): significantly shorter; effective dose compared with remimazolam (KM mice): significantly lower; duration and recovery time compared with remimazolam (SD rats): significantly shorter; effective dose compared with remimazolam (SD rats): significantly lower
CCC(CC)OC(=O)OCOC(=O)CC[C@@H]1N=C(c2ccccn2)c2cc(Br)ccc2-n2c(C)cnc21 [Example 50]	7.84	1.47	24.6	6.3	3.56	2.41	++ (“++” means 1-3 min)	++ (“++” means 1-3 min)	–
Cc1cnc2n1-c1cc(Br)c(Br)cc1C(c1ccccn1)=N[C@H]2CCC(=O)OCOC(=O)OC(C(C)C)C(C)C [Example 14]	6.42	2.29	32	6.9	5.06	2.39	++ (“++” means 1-3 min)	+++ (“+++” means 3-5 min)	–
CCOC(=O)OCOC(=O)CC[C@@H]1N=C(c2ccccn2)c2cc(Cl)cc(F)c2-n2c(C)cnc21 [Example 71, ((Ethoxycarbonyl)oxy)methyl 3-((4S)-8-chloro-10-fluoro-1-methyl-6-(pyridine-2-yl)-4H-benzo[f]imidazo [1,2-a][1,4]diaza-4-yl)propionate 2-hydroxypropane-1,2,3-tricarboxylate]	–	–	–	–	–	–	–	–	ED50 (KM mice; Mus musculus): 28.2 mg/kg; 2ED50 duration (KM mice; mouse, in vivo): 3.09 min; 2ED50 recovery time (KM mice; mouse, in vivo): 2.36 min; Quality of recovery (KM mice; mouse, in vivo): ++ (key: “+” means <1 mm; “++” means 1-3 min; “+++” means 3-5 min; “++++” means 5-10 min; “+++++” means >10 mm); ED50 (SD rats; Rattus norvegicus): 4.8 mg/kg; 2ED50 duration (SD rats; rat, in vivo): 3.21 min; 2ED50 recovery time (SD rats; rat, in vivo): 2.36 min; Quality of recovery (SD rats; rat, in vivo): + (key: “+” means <1 min; “++” means 1-3 min; “+++” means 3-5 min; “++++” means 5-10 min; “+++++” means >10 min)
COC(=O)C(C)OC(=O)CC[C@@H]1N=C(c2ccccn2)c2cc(Br)c(Br)cc2-n2c(C)cnc21 (stereo partly drawn) [Example 22]	5.58	2.18	30.7	4.3	3.28	2.46	++ (“++” means 1-3 min)	++ (“++” means 1-3 min)	–
COC(=O)C1(OC(=O)CC[C@@H]2N=C(c3ccccn3)c3cc(Cl)c(C)c(C)c3-n3c(C)cnc32)CC1 [Example 79, 1-((3-((4S)-8-chloro-1,9,10-trimethyl-6-(pyridine-2-yl)-4H-benzo[f]imidazo[1,2-a][1,4]diaza-4-yl)propionyl)oxy) cyclopropane-1-carboxylate 1-naphthoate]	3.45	1.38	31.3	6.6	2.48	2.19	+++ (“+++” means 3-5 min)	+++ (“+++” means 3-5 min)	–
Cc1cnc2n1-c1ccc(Br)cc1C(c1ccccn1)=N[C@H]2CCC(=O)OCOC(=O)OC(C(C)C)C(C)C [Example 52]	>10	1.49	32	6.8	4.03	2.41	++ (“++” means 1-3 min)	++++ (“++++” means 5-10 min)	–
COC(=O)C(C)(C)OC(=O)CC[C@@H]1N=C(c2ccccn2)c2cc(Br)c(Cl)cc2-n2c(C)cnc21 [Example 24]	1.50	1.02	12	6.8	0.50	0.47	+ (“+” means <1 min)	–	duration and recovery time compared with remimazolam (KM mice): significantly shorter; effective dose compared with remimazolam (KM mice): significantly lower; duration and recovery time compared with remimazolam (SD rats): significantly shorter; effective dose compared with remimazolam (SD rats): significantly lower
COC1N(C)CC(CC(OC(=O)CC[C@@H]2N=C(c3ccccn3)c3cc(OC(F)(F)F)cc(C)c3-n3c(C)cnc32)OC(=O)OC(C(C)C)C(C)C)CN1C (stereo partly drawn) [Example 83]	3.26	2.46	30.1	6.1	2.09	2.09	+++ (“+++” means 3-5 min)	+++ (“+++” means 3-5 min)	–
CCOC(=O)C(C)OC(=O)CC[C@@H]1N=C(c2ccccn2)c2cc(C)c(OC)cc2-n2c(C)cnc21 (stereo partly drawn) [Example 81, 1-Ethoxy-1-oxopropane-2-yl3-((4S)-9-methoxy-1,8-dimethyl-6-(pyridine-2-yl)-4H-benzo[f]imidazo[1,2-a][1,4]diaza-4-ylpropionate malonate]	3.49	2.43	31.1	6.2	2.43	2.09	+++ (“+++” means 3-5 min)	+++ (“+++” means 3-5 min)	–
CCc1c(Br)cc2c(c1Cl)-n1c(C)cnc1[C@H](CCC(=O)OC(C)(CC)SC(=O)OC)N=C2c1ccccn1 (stereo partly drawn) [Example 63]	3.14	2.03	29.8	3.5	2.03	2.09	++ (“++” means 1-3 min)	++ (“++” means 1-3 min)	–
COC(=O)C(C)(C)OC(=O)CC[C@@H]1N=C(c2ccccn2)c2cc(Cl)c(Cl)c(Cl)c2-n2c(C)cnc21 [Example 30]	4.04	1.59	–	–	3.01	2.51	++ (“++” means 1-3 min)	++ (“++” means 1-3 min)	ED50 (KM mice; KM mice (male, 18-22 g), injection via the tail vein, disappearance of righting reflex): 30.2 mg/kg; ED50 (SD rats; SD rats (male, 220-300 g), injection via the tail vein, disappearance of righting reflex): 6.2 mg/kg
COC(=O)OCOC(=O)CC[C@@H]1N=C(c2ccccn2)c2cc(Br)ccc2-n2c(C)cnc21 [Example 34]	1.31	1.23	14.4	3.4	1.21	1.01	+ (“+” means <1 min)	–	duration and recovery time compared with remimazolam (KM mice): significantly shorter; effective dose compared with remimazolam (KM mice): significantly lower; duration and recovery time compared with remimazolam (SD rats): significantly shorter; effective dose compared with remimazolam (SD rats): significantly lower
COC(=O)C(OC(=O)CC[C@@H]1N=C(c2ccccn2)c2cc(Br)c(OC(F)(F)F)c(C)c2-n2c(C)cnc21)C1CCSC1 (stereo partly drawn) [Example 74, 2-methoxy-2-oxo-1-(tetrahydrothiophene-3-yl)ethyl 3-((4S)-8-bromo-1,10-dimethyl-6-(pyridine-2-yl)-9-(trifluoromethoxy)-4H-benzo[f]imidazo[1,2-a][1,4]diazapin-4-yl)propionate stearate]	3.42	2.17	24.5	5.7	2.67	2.54	+++ (“+++” means 3-5 min)	++ (“++” means 1-3 min)	–
CCOC(=O)COC(=O)CC[C@@H]1N=C(c2ccccn2)c2cc(Br)c(Br)cc2-n2c(C)cnc21 [Example 21]	3.08	2.01	25.9	4.2	3.08	2.27	++ (“++” means 1-3 min)	++ (“++” means 1-3 min)	–
Cc1cnc2n1-c1cc(Br)c(Br)cc1C(c1ccccn1)=N[C@H]2CCC(=O)OCOC(=O)OC(C)C [Example 10]	5.12	2.06	28.3	5.8	5.31	2.06	++ (“++” means 1-3 min)	+++ (“+++” means 3-5 min)	–
COC(=O)C1(OC(=O)CC[C@@H]2N=C(c3ccccn3)c3cc(Cl)c(C(F)(F)F)cc3-n3c(C)cnc32)CC1 [Example 25]	5.32	2.19	34	4.2	3.53	2.21	++ (“++” means 1-3 min)	++ (“++” means 1-3 min)	–
